≈ marks a conversion by molar mass, not a printed value.
Assay: Solubility of the compound
Format: physicochemical

`O=C(Nc1cc(Nc2ccccc2Cl)ccn1)C1CC1` showed a solubility of 49 µM (≈ 14.1 µg/mL).

Reference: ChEMBL document CHEMBL3817795, “Identification and optimisation of a series of N-(4-anilino-2-pyridyl)acetamide activin receptor-like kinase 1 (ALK1) inhibitors” (Medchemcomm, 2016)
